Measurements taken from ChEMBL document CHEMBL1129201, “Synthesis and biological activity of 4-azido- and 4-trifluoracetamido-3-chloro-3-deamino-4-deoxydaunorubicin” (Bioorg Med Chem Lett, 1996).

Key:
KB 3-1 = assay: In vitro cytotoxicity using human epidermoid carcinoma (KB-3-1) cells; format: functional, cell-based
KB = assay: In vitro cytotoxicity using human epidermoid carcinoma (KB-A1) cells; format: functional, cell-based
L1210 = assay: In vitro cytotoxicity using murine leukemia L1210 cells from american type culture collection.; format: functional, cell-based; conditions: Mus musculus
[1] = Resistant Factor against MDR cell lines. Value expressed as ratio of IC50 on the resistant cell and on the corresponding sensitive cells.; format: functional

Work on COc1cccc2c1C(=O)c1c(O)c3c(c(O)c1C2=O)C[C@@](O)(C(C)=O)C[C@@H]3OC1CC(Cl)C(N=[N+]=[N-])C(C)O1 (stereo partly specified) yielded an IC50 (KB 3-1) of 1610 nM, an IC50 (KB) of 2.76 µM and an IC50 (L1210) of 1370 nM. For the same compound, the RF [1] was 1.7.

Work on COc1cccc2c1C(=O)c1c(O)c3c(c(O)c1C2=O)C[C@@](O)(C(C)=O)C[C@@H]3OC1CC(Cl)C(NC(=O)C(F)(F)F)C(C)O1 (stereo partly specified) yielded an IC50 (KB 3-1) of 550 nM, an IC50 (KB) of 3.79 µM and an IC50 (L1210) of 500 nM. It also gave an RF [1] of 6.9.

With COc1cccc2c1C(=O)c1c(O)c3c(c(O)c1C2=O)C[C@@](O)(C(C)=O)C[C@@H]3O[C@H]1C[C@H](N)[C@H](O)[C@H](C)O1 [DAUNORUBICIN] the IC50 (KB 3-1) was 7 nM, the IC50 (KB) was 2.07 µM and the IC50 (L1210) was 33 nM. For the same compound, the RF [1] was 295.7.

Work on COc1cccc2c1C(=O)c1c(O)c3c(c(O)c1C2=O)C[C@@](O)(C(=O)CO)C[C@@H]3O[C@H]1C[C@H](N)[C@H](O)[C@H](C)O1 [DOXORUBICIN] yielded an IC50 (KB 3-1) of 21 nM, an IC50 (KB) of 7.01 µM and an IC50 (L1210) of 33 nM. The RF [1] was 333.8.
